Laboratory results from patent publication US20240124417A1, “COMPOUNDS USEFUL AS IMMUNOMODULATORS” (Bristol-Myers Squibb Company, priority 2019, published 2024).

Biological target: T1, PD-1/PD-L1 (Homo sapiens, UniProt Q9NZQ7)
T1 construct: TVMV protease site linker (C); made in house; host or cells: HEK293T cells
Test: PD-1/PD-L1 Homogenous Time-Resolved Fluorescence (HTRF) binding assay
Details: PD-L1-His 10 nM, PD-1-Ig 20 nM
Outline: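 Inhibitors pre-incubated 15 min with PD-L1-His extracellular domain (10 nM final) in dPBS with 0.1% BSA and 0.05% Tween-20, then PD-1-Ig (20 nM final) added for a further 15 min. Read-out by HTRF with europium cryptate anti-Ig (1 nM) and APC anti-His (20 nM). Related pairs: PD-1-Ig/PD-L2-His (20/5 nM), CD80-His/PD-L1-Ig (100/10 nM).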

T1 sequence (Q9NZQ7 18-239): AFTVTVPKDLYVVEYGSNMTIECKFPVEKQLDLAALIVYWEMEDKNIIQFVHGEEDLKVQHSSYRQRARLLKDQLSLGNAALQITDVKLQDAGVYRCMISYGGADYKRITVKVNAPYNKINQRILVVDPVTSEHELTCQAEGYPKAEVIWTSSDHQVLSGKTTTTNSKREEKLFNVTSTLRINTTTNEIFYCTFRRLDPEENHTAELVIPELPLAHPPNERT

Row | Structure (SMILES) | IC50
1 | Cc1n[nH]c(C)c1CNCc1cc(Cl)c(OCc2cccc(-c3cccc(OCC4CCCN(C)C4)c3Cl)c2C)cc1OCc1cncc(C#N)c1 (stereo not drawn) [Example 2599, 5-((4-chloro-5-((2′-chloro-2-methyl-3′-((1-methylpiperidin-3-yl)methoxy)-[1,1′-biphenyl]-3-yl)methoxy)-2-((((3,5-dimethyl-1H-pyrazol-4-yl)methyl)amino)methyl)phenoxy)methyl)nicotinonitrile] | 1.7 nM
2 | Cc1c(COc2cc(OCc3cncc(C#N)c3)c(CN(C)Cc3cc4ccccn4n3)cc2Cl)cccc1-c1cccc(OCCCN2CC[C@@H](O)C2)c1C [Example 2542, (R)-5-((4-chloro-5-((3′-(3-(3-hydroxypyrrolidin-1-yl)propoxy)-2,2′-dimethyl-[1,1′-biphenyl]-3-yl)methoxy)-2-((methyl(pyrazolo[1,5-a]pyridin-2-ylmethyl)amino)methyl)phenoxy)methyl)nicotinonitrile] | 3.9 nM
3 | Cc1c(COc2cc(OCc3cncc(C#N)c3)c(CN(C)Cc3cc[nH]n3)cc2Cl)cccc1-c1cccc(OCCCN2CC[C@@H](O)C2)c1C [Example 2005, (R)-5-((2-((((1H-pyrazol-3-yl)methyl)(methyl)amino)methyl)-4-chloro-5-((3′-(3-(3-hydroxypyrrolidin-1-yl)propoxy)-2,2′-dimethyl-[1,1′-biphenyl]-3-yl)methoxy)phenoxy)methyl)nicotinonitrile] | 2.5 nM
4 | CC(=O)NC1CCN(CCCOc2cccc(-c3cccc(COc4cc(OCc5cncc(C#N)c5)c(CNCc5nnn[nH]5)cc4Cl)c3C)c2C)CC1 [Example 1046, N-(1-(3-((3′-((4-((((1H-Tetrazol-5-yl)methyl)amino)methyl)-2-chloro-5-((5-cyanopyridin-3-yl)methoxy)phenoxy)methyl)-2,2′-dimethyl-[1,1′-biphenyl]-3-yl)oxy)propyl)piperidin-4-yl)acetamide] | 1.9 nM
5 | Cc1c(COc2cc(OCc3cncc(C#N)c3)c(CNCc3ncccn3)cc2Cl)cccc1-c1cccc(OCC2CCCN(CCC(F)(F)F)C2)c1Cl (stereo not drawn) [Example 2066, 5-((4-chloro-5-((2′-chloro-2-methyl-3′-((1-(3,3,3-trifluoropropyl)piperidin-3-yl)methoxy)-[1,1′-biphenyl]-3-yl)methoxy)-2-(((pyrimidin-2-ylmethyl)amino)methyl)phenoxy)methyl)nicotinonitrile] | 75.9 nM
6 | Cc1c(COc2cc(OCc3cncc(C#N)c3)c(CN(C)Cc3cnccn3)cc2Cl)cccc1-c1cccc(OCCCN2CC[C@@H](O)C2)c1C [Example 2030, (R)-5-((4-chloro-5-((3′-(3-(3-hydroxypyrrolidin-1-yl)propoxy)-2,2′-dimethyl-[1,1′-biphenyl]-3-yl)methoxy)-2-((methyl(pyrazin-2-ylmethyl)amino)methyl)phenoxy)methyl)nicotinonitrile] | 1.1 nM
7 | Cc1c(COc2cc(OCc3cncc(C#N)c3)c(CNCc3ncccn3)cc2Cl)cccc1-c1cccc(OCc2cncnc2)c1Cl [Example 2063, 5-((4-chloro-5-((2′-chloro-2-methyl-3′-(pyrimidin-5-ylmethoxy)-[1,1′-biphenyl]-3-yl)methoxy)-2-(((pyrimidin-2-ylmethyl)amino)methyl)phenoxy)methyl)nicotinonitrile] | 28.5 nM
8 | CCc1csc(CNCc2cc(Cl)c(OCc3cccc(-c4cccc(OCC5CCCN(C)C5)c4Cl)c3C)cc2OCc2cncc(C#N)c2)n1 (stereo not drawn) [Example 2622, 5-((4-chloro-5-((2′-chloro-2-methyl-3′-((1-methylpiperidin-3-yl)methoxy)-[1,1′-biphenyl]-3-yl)methoxy)-2-((((4-ethylthiazol-2-yl)methyl)amino)methyl)phenoxy)methyl)nicotinonitrile] | 8.3 nM
9 | Cc1c(COc2cc(OCc3cncc(C#N)c3)c(CNCc3nc4ccccc4[nH]3)cc2Cl)cccc1-c1cccc(OCC2CCCN(C)C2)c1Cl (stereo not drawn) [Example 2616, 5-((2-((((1H-benzo[d]imidazol-2-yl)methyl)amino)methyl)-4-chloro-5-((2′-chloro-2-methyl-3′-((1-methylpiperidin-3-yl)methoxy)-[1,1′-biphenyl]-3-yl)methoxy)phenoxy)methyl)nicotinonitrile] | 1.9 nM
10 | COc1cc(OCc2cccc(-c3cccc(OCC4CCCN(C)C4)c3Cl)c2C)c(Cl)cc1CNCc1ncc[nH]1 (stereo not drawn) [Example 2057, N-((1H-imidazol-2-yl)methyl)-1-(5-chloro-4-((2′-chloro-2-methyl-3′-((1-methylpiperidin-3-yl)methoxy)-[1,1′-biphenyl]-3-yl)methoxy)-2-methoxyphenyl)methanamine] | 6.3 nM
11 | Cc1c(COc2cc(OCc3cncc(C#N)c3)c(CNCCc3nc4ccccc4[nH]3)cc2Cl)cccc1-c1cccc(OCCCN2CC[C@@H](O)C2)c1C [Example 2505, (R)-5-((2-(((2-(1H-benzo[d]imidazol-2-yl)ethyl)amino)methyl)-4-chloro-5-((3′-(3-(3 hydroxypyrrolidin-1-yl)propoxy)-2,2′-dimethyl-[1,1′-biphenyl]-3yl)methoxy)phenoxy)methyl)nicotinonitrile] | 6.7 nM
12 | Cc1c(COc2cc(OCc3cncc(C#N)c3)c(CN3CCc4[nH]ncc4C3)cc2Cl)cccc1-c1cccc(OCCCN2CC[C@@H](O)C2)c1C [Example 2512, (R)-5-((4-chloro-5-((3′-(3-(3-hydroxypyrrolidin-1-yl)propoxy)-2,2′-dimethyl-[1,1′-biphenyl]-3-yl)methoxy)-2-((1,4,6,7-tetrahydro-5H-pyrazolo[4,3-c]pyridin-5-yl)methyl)phenoxy)methyl)nicotinonitrile] | 3.9 nM
13 | Cc1c(COc2cc(OCc3cncc(C#N)c3)c(CN(C)Cc3cncs3)cc2Cl)cccc1-c1cccc(OC2CCN(C)CC2)c1Cl [Example 2048, 5-((4-chloro-5-((2′-chloro-2-methyl-3′-((1-methylpiperidin-4-yl)oxy)-[1,1′-biphenyl]-3-yl)methoxy)-2-((methyl(thiazol-5-ylmethyl)amino)methyl)phenoxy)methyl)nicotinonitrile] | 355 nM
14 | Cc1c(COc2cc(OCc3cncc(C#N)c3)c(CN(C)Cc3ncc[nH]3)cc2Cl)cccc1-c1cccc(OCCCN2CCC(O)(CO)CC2)c1Cl [Example 2015, 5-((2-((((1H-imidazol-2-yl)methyl)(methyl)amino)methyl)-4-chloro-5-((2′-chloro-3′-(3-(4-hydroxy-4-(hydroxymethyl)piperidin-1-yl)propoxy)-2-methyl-[1,1′-biphenyl]-3-yl)methoxy)phenoxy)methyl)nicotinonitrile] | 3.1 nM

Results, then the molecule that gave them:

Row | IC50 | Structure (SMILES)
15 | 0.5 nM | Cc1c(COc2cc(OCc3cncc(C#N)c3)c(CN(C)Cc3c[nH]cn3)cc2Cl)cccc1-c1cccc(OCCCN2CCC(O)(CO)CC2)c1Cl [Example 2014, 5-((2-((((1H-imidazol-4-yl)methyl)(methyl)amino)methyl)-4-chloro-5-((2′-chloro-3′-(3-(4-hydroxy-4-(hydroxymethyl)piperidin-1-yl)propoxy)-2-methyl-[1,1′-biphenyl]-3-yl)methoxy)phenoxy)methyl)nicotinonitrile]
16 | 1.1 nM | Cc1cc(CN(C)Cc2cc(Cl)c(OCc3cccc(-c4cccc(OCCCN5CC[C@@H](O)C5)c4C)c3C)cc2OCc2cncc(C#N)c2)no1 [Example 2529, (R)-5-((4-chloro-5-((3′-(3-(3-hydroxypyrrolidin-1-yl)propoxy)-2,2′-dimethyl-[1,1′-biphenyl]-3-yl)methoxy)-2-((methyl((5-methylisoxazol-3-yl)methyl)amino)methyl)phenoxy)methyl)nicotinonitrile]
17 | 0.5 nM | Cc1c(COc2cc(OCc3cncc(C#N)c3)c(CN(C)Cc3ncco3)cc2Cl)cccc1-c1cccc(OCCCN2CC[C@@H](O)C2)c1C [Example 2550, (R)-5-((4-chloro-5-((3′-(3-(3-hydroxypyrrolidin-1-yl)propoxy)-2,2′-dimethyl-[1,1′-biphenyl]-3-yl)methoxy)-2-((methyl(oxazol-2-ylmethyl)amino)methyl)phenoxy)methyl)nicotinonitrile]
18 | 0.2 nM | Cc1c(COc2cc(OCc3cncc(C#N)c3)c(CN(C)Cc3cc[nH]n3)cc2Cl)cccc1-c1cccc(OCCCN2CCC(O)(CO)CC2)c1Cl [Example 2016, 5-((2-((((1H-pyrazol-3-yl)methyl)(methyl)amino)methyl)-4-chloro-5-((2′-chloro-3′-(3-(4-hydroxy-4-(hydroxymethyl)piperidin-1-yl)propoxy)-2-methyl-[1,1′-biphenyl]-3-yl)methoxy)phenoxy)methyl)nicotinonitrile]
19 | 0.2 nM | Cc1c(COc2cc(OCc3cncc(C#N)c3)c(CN(C)Cc3cccnn3)cc2Cl)cccc1-c1cccc(OCCCN2CC[C@@H](O)C2)c1C [Example 2031, (R)-5-((4-chloro-5-((3′-(3-(3-hydroxypyrrolidin-1-yl)propoxy)-2,2′-dimethyl-[1,1′-biphenyl]-3-yl)methoxy)-2-((methyl(pyridazin-3-ylmethyl)amino)methyl)phenoxy)methyl)nicotinonitrile]
20 | 0.8 nM | Cc1c(COc2cc(OCc3cncc(C#N)c3)c(CNCc3ccc4c(N)n[nH]c4c3)cc2Cl)cccc1-c1cccc(OCC2CCCN(C)C2)c1Cl (stereo not drawn) [Example 2610, 5-((2-((((3-amino-1H-indazol-6-yl)methyl)amino)methyl)-4-chloro-5-((2′-chloro-2-methyl-3′-((1-methylpiperidin-3-yl)methoxy)-[1,1′-biphenyl]-3-yl)methoxy)phenoxy)methyl)nicotinonitrile]
21 | < 0.038 nM | CCc1csc(CNCc2cc(Cl)c(OCc3cccc(-c4cccc(OCCCN5CC[C@@H](O)C5)c4C)c3C)cc2OCc2cncc(C#N)c2)n1 [Example 2548, (R)-5-((4-chloro-2-((((4-ethylthiazol-2-yl)methyl)amino)methyl)-5-((3′-(3-(3-hydroxypyrrolidin-1-yl)propoxy)-2,2′-dimethyl-[1,1′-biphenyl]-3-yl)methoxy)phenoxy)methyl)nicotinonitrile]
